Test results taken from the kinase profiling compilation of Christmann-Franck et al. (2016).

How the values were obtained:
Assay in all cases: radiometric filter-binding kinase assay, Kinase HotSpot
Details in all cases: compound 0.5 µM; ATP 10 µM
AURKA (human) = AURKA (human) (UniProt O14965)
CAMK1 (human) = CAMK1 (human) (UniProt Q14012)
CAMKK2 (human) = CAMKK2 (human) (UniProt Q96RR4)
CDC42BPA (human) = CDC42BPA (human) (UniProt Q5VT25)
CDK1 CCNB1 (human) = CDK1 CCNB1 (human) (UniProt P06493+P14635)
CDK1 CCNB1 (human), sequence (P06493 whole entry, looked up): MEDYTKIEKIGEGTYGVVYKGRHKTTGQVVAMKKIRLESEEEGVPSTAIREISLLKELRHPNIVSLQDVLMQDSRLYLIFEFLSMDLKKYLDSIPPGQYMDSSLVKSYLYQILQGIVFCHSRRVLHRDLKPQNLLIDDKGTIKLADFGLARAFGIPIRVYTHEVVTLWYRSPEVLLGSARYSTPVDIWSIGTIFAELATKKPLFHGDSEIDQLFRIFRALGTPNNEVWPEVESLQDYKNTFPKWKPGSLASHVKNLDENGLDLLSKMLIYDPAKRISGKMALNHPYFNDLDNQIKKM
CDK1 CCNB1 (human), sequence (P14635 whole entry, looked up): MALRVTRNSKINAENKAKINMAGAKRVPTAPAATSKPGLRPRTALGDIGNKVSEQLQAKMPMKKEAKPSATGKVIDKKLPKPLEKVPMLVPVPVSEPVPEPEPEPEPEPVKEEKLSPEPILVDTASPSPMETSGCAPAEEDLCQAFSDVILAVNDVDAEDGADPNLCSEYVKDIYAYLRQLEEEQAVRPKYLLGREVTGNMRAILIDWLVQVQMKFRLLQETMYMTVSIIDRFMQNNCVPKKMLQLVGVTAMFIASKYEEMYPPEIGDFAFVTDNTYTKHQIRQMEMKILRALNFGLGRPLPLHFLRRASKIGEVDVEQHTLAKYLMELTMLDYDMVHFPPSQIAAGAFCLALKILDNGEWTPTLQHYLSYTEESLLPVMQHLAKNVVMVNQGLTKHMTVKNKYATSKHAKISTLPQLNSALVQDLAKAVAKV

CDK2 CCNA2 (human) = CDK2 CCNA2 (human) (UniProt P24941+P20248)
CDK5 CDK5R1 p35 (human) = CDK5 CDK5R1 p35 (human) (UniProt Q00535+Q15078)
CDK6 CCND3 (human) = CDK6 CCND3 (human) (UniProt P30281+Q00534)
CDK7 CCNH MNAT1 (human) = CDK7 CCNH MNAT1 (human) (UniProt P50613+P51948+P51946)
CDK9 CCNK (human) = CDK9 CCNK (human) (UniProt O75909+P50750)
CSF1R (human) = CSF1R (human) (UniProt P07333)
DYRK2 (human) = DYRK2 (human) (UniProt Q92630)
EPHB1 (human) = EPHB1 (human) (UniProt P54762)
ERBB4 (human) = ERBB4 (human) (UniProt Q15303)
FGFR2 (human) = FGFR2 (human) (UniProt P21802)
GRK7 (human) = GRK7 (human) (UniProt Q8WTQ7)
IRAK1 (human) = IRAK1 (human) (UniProt P51617)
MAP3K10 (human) = MAP3K10 (human) (UniProt Q02779)
MAP3K14 (human) = MAP3K14 (human) (UniProt Q99558)
MAP3K5 (human) = MAP3K5 (human) (UniProt Q99683)
MAPK11 (human) = MAPK11 (human) (UniProt Q15759)
MAPKAPK3 (human) = MAPKAPK3 (human) (UniProt Q16644)
MAPKAPK5 (human) = MAPKAPK5 (human) (UniProt Q8IW41)
MARK1 (human) = MARK1 (human) (UniProt Q9P0L2)
MERTK (human) = MERTK (human) (UniProt Q12866)
MYLK2 (human) = MYLK2 (human) (UniProt Q9H1R3)
NEK11 (human) = NEK11 (human) (UniProt Q8NG66)
NEK11 (human), sequence (Q8NG66 whole entry, looked up): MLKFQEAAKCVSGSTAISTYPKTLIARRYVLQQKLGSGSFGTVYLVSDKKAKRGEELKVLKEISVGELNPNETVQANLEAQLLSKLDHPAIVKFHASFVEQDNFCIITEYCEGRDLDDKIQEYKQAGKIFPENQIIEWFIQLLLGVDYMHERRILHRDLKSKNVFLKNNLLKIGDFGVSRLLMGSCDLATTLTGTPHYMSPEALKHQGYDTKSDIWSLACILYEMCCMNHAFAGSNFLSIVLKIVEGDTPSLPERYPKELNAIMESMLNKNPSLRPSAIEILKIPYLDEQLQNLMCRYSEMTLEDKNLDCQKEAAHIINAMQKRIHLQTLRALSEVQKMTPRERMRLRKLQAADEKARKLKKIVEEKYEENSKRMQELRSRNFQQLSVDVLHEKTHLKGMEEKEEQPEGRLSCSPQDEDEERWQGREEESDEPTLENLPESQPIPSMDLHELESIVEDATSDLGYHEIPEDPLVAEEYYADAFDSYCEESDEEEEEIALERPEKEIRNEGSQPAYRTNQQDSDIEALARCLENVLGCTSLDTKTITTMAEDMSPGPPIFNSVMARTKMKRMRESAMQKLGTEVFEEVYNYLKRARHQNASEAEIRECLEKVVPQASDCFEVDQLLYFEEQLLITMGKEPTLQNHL

PAK3 (human) = PAK3 (human) (UniProt O75914)
PDGFRB (human) = PDGFRB (human) (UniProt P09619)
PKN1 (human) = PKN1 (human) (UniProt Q16512)
PKN2 (human) = PKN2 (human) (UniProt Q16513)
PKN2 (human), sequence (Q16513 whole entry, looked up): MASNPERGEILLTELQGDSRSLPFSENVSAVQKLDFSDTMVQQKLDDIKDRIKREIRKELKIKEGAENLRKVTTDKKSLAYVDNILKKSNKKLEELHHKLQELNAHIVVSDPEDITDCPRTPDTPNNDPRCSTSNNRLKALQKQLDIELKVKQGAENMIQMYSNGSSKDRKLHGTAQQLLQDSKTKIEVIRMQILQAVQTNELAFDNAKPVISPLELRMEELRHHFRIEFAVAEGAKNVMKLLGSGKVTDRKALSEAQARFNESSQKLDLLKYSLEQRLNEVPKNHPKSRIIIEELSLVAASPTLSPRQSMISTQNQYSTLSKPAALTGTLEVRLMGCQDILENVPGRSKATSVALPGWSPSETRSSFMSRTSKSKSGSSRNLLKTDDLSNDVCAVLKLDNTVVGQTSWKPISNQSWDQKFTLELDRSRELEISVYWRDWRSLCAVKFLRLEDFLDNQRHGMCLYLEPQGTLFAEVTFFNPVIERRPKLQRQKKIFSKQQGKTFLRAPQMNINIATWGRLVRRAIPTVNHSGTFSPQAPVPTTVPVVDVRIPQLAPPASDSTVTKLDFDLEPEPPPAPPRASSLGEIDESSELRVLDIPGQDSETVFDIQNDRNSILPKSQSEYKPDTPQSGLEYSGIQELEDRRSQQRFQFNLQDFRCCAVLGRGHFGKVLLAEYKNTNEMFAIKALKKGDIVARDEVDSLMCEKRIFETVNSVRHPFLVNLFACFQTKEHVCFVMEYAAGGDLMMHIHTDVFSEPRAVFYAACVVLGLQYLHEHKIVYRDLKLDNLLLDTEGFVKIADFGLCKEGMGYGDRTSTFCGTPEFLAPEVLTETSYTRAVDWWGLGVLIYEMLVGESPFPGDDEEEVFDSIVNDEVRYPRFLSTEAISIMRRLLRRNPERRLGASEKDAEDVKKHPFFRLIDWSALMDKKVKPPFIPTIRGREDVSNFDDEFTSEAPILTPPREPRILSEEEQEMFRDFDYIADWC

PRKCE (human) = PRKCE (human) (UniProt Q02156)
PRKCE (human), sequence (Q02156 whole entry, looked up): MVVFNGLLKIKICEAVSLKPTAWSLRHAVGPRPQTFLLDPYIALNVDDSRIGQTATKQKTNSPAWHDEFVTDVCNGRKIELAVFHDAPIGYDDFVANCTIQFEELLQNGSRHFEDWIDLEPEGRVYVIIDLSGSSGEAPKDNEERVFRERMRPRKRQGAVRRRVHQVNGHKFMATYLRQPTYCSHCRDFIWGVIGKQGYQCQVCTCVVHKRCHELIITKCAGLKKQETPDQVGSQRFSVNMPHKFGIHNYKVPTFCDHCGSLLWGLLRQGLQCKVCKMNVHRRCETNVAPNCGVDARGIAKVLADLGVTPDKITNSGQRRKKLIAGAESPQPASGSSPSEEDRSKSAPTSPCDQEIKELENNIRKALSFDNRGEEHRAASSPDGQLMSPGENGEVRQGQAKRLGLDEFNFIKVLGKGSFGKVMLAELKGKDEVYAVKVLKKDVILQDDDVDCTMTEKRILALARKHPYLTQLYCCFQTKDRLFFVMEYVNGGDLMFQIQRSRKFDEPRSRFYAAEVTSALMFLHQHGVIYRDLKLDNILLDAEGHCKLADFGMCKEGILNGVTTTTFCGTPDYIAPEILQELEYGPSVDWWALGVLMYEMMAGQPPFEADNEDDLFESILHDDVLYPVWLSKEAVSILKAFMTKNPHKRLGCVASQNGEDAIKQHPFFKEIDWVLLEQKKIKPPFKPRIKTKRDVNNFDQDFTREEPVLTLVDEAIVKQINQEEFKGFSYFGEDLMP

PRKCI (human) = PRKCI (human) (UniProt P41743)
PTK2 (human) = PTK2 (human) (UniProt Q05397)
RIPK2 (human) = RIPK2 (human) (UniProt O43353)
ROCK1 (human) = ROCK1 (human) (UniProt Q13464)
TAOK1 (human) = TAOK1 (human) (UniProt Q7L7X3)
TGFBR2 (human) = TGFBR2 (human) (UniProt P37173)
TNK2 (human) = TNK2 (human) (UniProt Q07912)
TSSK2 (human) = TSSK2 (human) (UniProt Q96PF2)
TTK (human) = TTK (human) (UniProt P33981)

CDC42BPA (human), sequence (Q5VT25 whole entry, looked up): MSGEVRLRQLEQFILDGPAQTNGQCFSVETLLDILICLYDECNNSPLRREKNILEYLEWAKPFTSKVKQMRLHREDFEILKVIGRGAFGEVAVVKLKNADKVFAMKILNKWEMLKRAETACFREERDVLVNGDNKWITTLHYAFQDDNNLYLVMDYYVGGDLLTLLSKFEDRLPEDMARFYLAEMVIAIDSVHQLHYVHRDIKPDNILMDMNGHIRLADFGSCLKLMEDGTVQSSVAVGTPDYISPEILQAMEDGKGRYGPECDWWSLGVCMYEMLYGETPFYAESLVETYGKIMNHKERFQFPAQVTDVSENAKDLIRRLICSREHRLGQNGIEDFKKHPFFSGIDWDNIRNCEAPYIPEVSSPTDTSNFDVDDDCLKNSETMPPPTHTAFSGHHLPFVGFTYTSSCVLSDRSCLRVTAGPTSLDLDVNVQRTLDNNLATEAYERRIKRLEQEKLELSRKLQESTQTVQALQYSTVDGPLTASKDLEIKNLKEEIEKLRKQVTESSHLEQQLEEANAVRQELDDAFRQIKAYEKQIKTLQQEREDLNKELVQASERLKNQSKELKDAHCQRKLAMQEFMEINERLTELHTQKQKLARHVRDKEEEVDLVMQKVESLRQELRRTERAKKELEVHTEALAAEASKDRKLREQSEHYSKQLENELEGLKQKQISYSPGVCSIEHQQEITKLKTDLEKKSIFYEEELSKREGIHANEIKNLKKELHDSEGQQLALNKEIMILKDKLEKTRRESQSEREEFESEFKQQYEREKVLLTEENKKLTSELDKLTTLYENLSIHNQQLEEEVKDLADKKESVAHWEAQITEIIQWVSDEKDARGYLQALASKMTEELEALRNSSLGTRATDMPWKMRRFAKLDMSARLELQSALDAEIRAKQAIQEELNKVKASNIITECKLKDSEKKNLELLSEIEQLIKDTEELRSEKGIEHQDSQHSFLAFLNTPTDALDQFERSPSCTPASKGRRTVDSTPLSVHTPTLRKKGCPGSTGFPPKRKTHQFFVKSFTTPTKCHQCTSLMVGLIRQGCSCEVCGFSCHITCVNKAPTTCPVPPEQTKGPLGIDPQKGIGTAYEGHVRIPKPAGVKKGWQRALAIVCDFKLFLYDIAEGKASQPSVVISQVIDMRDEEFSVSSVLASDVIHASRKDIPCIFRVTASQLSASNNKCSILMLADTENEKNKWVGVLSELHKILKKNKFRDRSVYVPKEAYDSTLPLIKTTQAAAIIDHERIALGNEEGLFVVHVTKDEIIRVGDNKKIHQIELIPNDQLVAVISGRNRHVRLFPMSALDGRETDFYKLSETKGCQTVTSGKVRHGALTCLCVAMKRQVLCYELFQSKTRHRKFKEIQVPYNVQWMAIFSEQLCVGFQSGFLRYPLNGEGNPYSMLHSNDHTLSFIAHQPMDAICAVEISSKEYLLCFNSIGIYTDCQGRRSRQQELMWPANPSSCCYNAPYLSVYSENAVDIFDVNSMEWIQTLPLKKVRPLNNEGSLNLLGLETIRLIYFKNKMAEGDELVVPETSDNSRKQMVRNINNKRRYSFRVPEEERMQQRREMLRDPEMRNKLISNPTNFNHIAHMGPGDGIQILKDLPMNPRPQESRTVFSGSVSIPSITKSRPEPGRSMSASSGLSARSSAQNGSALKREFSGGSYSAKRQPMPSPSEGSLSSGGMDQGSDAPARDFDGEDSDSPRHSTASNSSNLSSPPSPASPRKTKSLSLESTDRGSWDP

CN(C)c1ccc(/C=C2\C(=O)Nc3ccccc32)cc1
residual activity (AURKA (human)): 104%
residual activity (CAMK1 (human)): 104%
residual activity (CAMKK2 (human)): 100%
residual activity (CDC42BPA (human)): 101%
residual activity (CDK1 CCNB1 (human)): 94.1%
residual activity (CDK2 CCNA2 (human)): 102%
residual activity (CDK5 CDK5R1 p35 (human)): 104%
residual activity (CDK6 CCND3 (human)): 96.4%
residual activity (CDK7 CCNH MNAT1 (human)): 99.4%
residual activity (CDK9 CCNK (human)): 100%
residual activity (CSF1R (human)): 77.5%
residual activity (DYRK2 (human)): 100%
residual activity (EPHB1 (human)): 102%
residual activity (ERBB4 (human)): 97.7%
residual activity (FGFR2 (human)): 98.2%
residual activity (GRK7 (human)): 100%
residual activity (IRAK1 (human)): 102%
residual activity (MAP3K10 (human)): 96.6%
residual activity (MAP3K14 (human)): 67.7%
residual activity (MAP3K5 (human)): 99.4%
residual activity (MAPK11 (human)): 93.5%
residual activity (MAPKAPK3 (human)): 100%
residual activity (MAPKAPK5 (human)): 98.6%
residual activity (MARK1 (human)): 97.3%
residual activity (MERTK (human)): 92.7%
residual activity (MYLK2 (human)): 82.6%
residual activity (NEK11 (human)): 96.4%
residual activity (PAK3 (human)): 99%
residual activity (PDGFRB (human)): 85.8%
residual activity (PKN1 (human)): 98.4%
residual activity (PKN2 (human)): 98.9%
residual activity (PRKCE (human)): 92.6%
residual activity (PRKCI (human)): 101%
residual activity (PTK2 (human)): 104%
residual activity (RIPK2 (human)): 87.8%
residual activity (ROCK1 (human)): 98.3%
residual activity (TAOK1 (human)): 94.7%
residual activity (TGFBR2 (human)): 124%
residual activity (TNK2 (human)): 101%
residual activity (TSSK2 (human)): 101%
residual activity (TTK (human)): 99.7%

COc1ccc2c(c1)c(C1=C(c3c[nH]c4ccccc34)C(=O)NC1=O)cn2CCCN(C)C
residual activity (AURKA (human)): 86.6%
residual activity (CAMK1 (human)): 90.2%
residual activity (CAMKK2 (human)): 82%
residual activity (CDC42BPA (human)): 89.2%
residual activity (CDK1 CCNB1 (human)): 94.4%
residual activity (CDK2 CCNA2 (human)): 112%
residual activity (CDK5 CDK5R1 p35 (human)): 81.4%
residual activity (CDK6 CCND3 (human)): 85%
residual activity (CDK7 CCNH MNAT1 (human)): 88%
residual activity (CDK9 CCNK (human)): 54.6%
residual activity (CSF1R (human)): 92.8%
residual activity (DYRK2 (human)): 92.4%
residual activity (EPHB1 (human)): 91.7%
residual activity (ERBB4 (human)): 93.4%
residual activity (FGFR2 (human)): 90.7%
residual activity (GRK7 (human)): 106%
residual activity (IRAK1 (human)): 89%
residual activity (MAP3K10 (human)): 83.4%
residual activity (MAP3K14 (human)): 79.2%
residual activity (MAP3K5 (human)): 95.1%
residual activity (MAPK11 (human)): 96.7%
residual activity (MAPKAPK3 (human)): 92.3%
residual activity (MAPKAPK5 (human)): 98.1%
residual activity (MARK1 (human)): 93.2%
residual activity (MERTK (human)): 84%
residual activity (MYLK2 (human)): 96%
residual activity (NEK11 (human)): 91.6%
residual activity (PAK3 (human)): 105%
residual activity (PDGFRB (human)): 75.8%
residual activity (PKN1 (human)): 34.7%
residual activity (PKN2 (human)): 95%
residual activity (PRKCE (human)): 14.6%
residual activity (PRKCI (human)): 67.6%
residual activity (PTK2 (human)): 88.2%
residual activity (RIPK2 (human)): 70.2%
residual activity (ROCK1 (human)): 93.5%
residual activity (TAOK1 (human)): 99.5%
residual activity (TGFBR2 (human)): 120%
residual activity (TNK2 (human)): 77.9%
residual activity (TSSK2 (human)): 85.5%
residual activity (TTK (human)): 89.9%

COc1ccc(Cl)cc1NC(=O)Nc1cc(C)nc2ccccc12
residual activity (AURKA (human)): 93.4%
residual activity (CAMK1 (human)): 91.7%
residual activity (CAMKK2 (human)): 93.2%
residual activity (CDC42BPA (human)): 98.8%
residual activity (CDK1 CCNB1 (human)): 81.1%
residual activity (CDK2 CCNA2 (human)): 98.6%
residual activity (CDK5 CDK5R1 p35 (human)): 102%
residual activity (CDK6 CCND3 (human)): 99%
residual activity (CDK7 CCNH MNAT1 (human)): 101%
residual activity (CDK9 CCNK (human)): 95.9%
residual activity (CSF1R (human)): 94.8%
residual activity (EPHB1 (human)): 102%
residual activity (ERBB4 (human)): 97.8%
residual activity (FGFR2 (human)): 96.9%
residual activity (GRK7 (human)): 101%
residual activity (IRAK1 (human)): 91.2%
residual activity (MAP3K10 (human)): 94.9%
residual activity (MAP3K14 (human)): 84.9%
residual activity (MAP3K5 (human)): 101%
residual activity (MAPK11 (human)): 92%
residual activity (MAPKAPK3 (human)): 101%
residual activity (MAPKAPK5 (human)): 89.1%
residual activity (MARK1 (human)): 102%
residual activity (MERTK (human)): 93.3%
residual activity (MYLK2 (human)): 99.3%
residual activity (NEK11 (human)): 94.6%
residual activity (PAK3 (human)): 98.9%
residual activity (PDGFRB (human)): 105%
residual activity (PKN1 (human)): 104%
residual activity (PKN2 (human)): 89.7%
residual activity (PRKCE (human)): 99.7%
residual activity (PRKCI (human)): 99.4%
residual activity (PTK2 (human)): 97.3%
residual activity (RIPK2 (human)): 82.7%
residual activity (ROCK1 (human)): 100%
residual activity (TAOK1 (human)): 103%
residual activity (TGFBR2 (human)): 111%
residual activity (TNK2 (human)): 102%
residual activity (TSSK2 (human)): 94%
residual activity (TTK (human)): 103%

Cc1cncc2cccc(S(=O)(=O)N3CCCN(C(=O)CN)C[C@H]3C)c12
residual activity (AURKA (human)): 64.7%
residual activity (CAMK1 (human)): 102%
residual activity (CAMKK2 (human)): 115%
residual activity (CDC42BPA (human)): 95.1%
residual activity (CDK1 CCNB1 (human)): 96.9%
residual activity (CDK2 CCNA2 (human)): 98.4%
residual activity (CDK5 CDK5R1 p35 (human)): 97.4%
residual activity (CDK6 CCND3 (human)): 104%
residual activity (CDK7 CCNH MNAT1 (human)): 98%
residual activity (CDK9 CCNK (human)): 103%
residual activity (CSF1R (human)): 95.6%
residual activity (DYRK2 (human)): 101%
residual activity (EPHB1 (human)): 88.7%
residual activity (ERBB4 (human)): 78.4%
residual activity (FGFR2 (human)): 98.4%
residual activity (GRK7 (human)): 88.8%
residual activity (IRAK1 (human)): 135%
residual activity (MAP3K10 (human)): 105%
residual activity (MAP3K14 (human)): 109%
residual activity (MAP3K5 (human)): 106%
residual activity (MAPK11 (human)): 101%
residual activity (MAPKAPK3 (human)): 98.8%
residual activity (MAPKAPK5 (human)): 94.2%
residual activity (MARK1 (human)): 89.7%
residual activity (MERTK (human)): 95.4%
residual activity (MYLK2 (human)): 101%
residual activity (NEK11 (human)): 84.2%
residual activity (PAK3 (human)): 105%
residual activity (PDGFRB (human)): 104%
residual activity (PKN1 (human)): 25.3%
residual activity (PKN2 (human)): 74.7%
residual activity (PRKCE (human)): 52.4%
residual activity (PRKCI (human)): 87.4%
residual activity (PTK2 (human)): 78%
residual activity (RIPK2 (human)): 94.4%
residual activity (ROCK1 (human)): 3.44%
residual activity (TAOK1 (human)): 84.2%
residual activity (TGFBR2 (human)): 132%
residual activity (TNK2 (human)): 84.5%
residual activity (TSSK2 (human)): 99.6%
residual activity (TTK (human)): 111%

NC(=O)c1cccc(-c2cc(Nc3ccc(OC(F)(F)F)cc3)ncn2)c1
residual activity (AURKA (human)): 107%
residual activity (CAMK1 (human)): 97.5%
residual activity (CAMKK2 (human)): 99.1%
residual activity (CDC42BPA (human)): 99.3%
residual activity (CDK1 CCNB1 (human)): 92.5%
residual activity (CDK2 CCNA2 (human)): 96.5%
residual activity (CDK5 CDK5R1 p35 (human)): 96%
residual activity (CDK6 CCND3 (human)): 96.2%
residual activity (CDK9 CCNK (human)): 106%
residual activity (CSF1R (human)): 94.1%
residual activity (DYRK2 (human)): 78.7%
residual activity (EPHB1 (human)): 105%
residual activity (ERBB4 (human)): 85.3%
residual activity (FGFR2 (human)): 95.9%
residual activity (GRK7 (human)): 97.1%
residual activity (IRAK1 (human)): 101%
residual activity (MAP3K10 (human)): 95.4%
residual activity (MAP3K14 (human)): 103%
residual activity (MAP3K5 (human)): 90.3%
residual activity (MAPK11 (human)): 105%
residual activity (MAPKAPK3 (human)): 98%
residual activity (MAPKAPK5 (human)): 94.3%
residual activity (MARK1 (human)): 94.7%
residual activity (MERTK (human)): 98.1%
residual activity (MYLK2 (human)): 97.1%
residual activity (NEK11 (human)): 98.3%
residual activity (PAK3 (human)): 100%
residual activity (PDGFRB (human)): 94.8%
residual activity (PKN1 (human)): 98.9%
residual activity (PKN2 (human)): 89.8%
residual activity (PRKCE (human)): 111%
residual activity (PRKCI (human)): 99.6%
residual activity (PTK2 (human)): 100%
residual activity (RIPK2 (human)): 89.3%
residual activity (ROCK1 (human)): 96.8%
residual activity (TAOK1 (human)): 92.9%
residual activity (TGFBR2 (human)): 94.9%
residual activity (TNK2 (human)): 98.5%
residual activity (TSSK2 (human)): 97%
residual activity (TTK (human)): 91.4%
